The values that follow come from patent US6559148B1, “Use of P2Y purinoreceptor antagonist for the treatment of ischemia reperfusion” (Consiglio Nazionale delle Ricerche, priority 1998, dated 2003).

Entries after “also recorded” stand apart in the source; their conditions may differ.

This experiment relates to Wistar albino adult male rats. Description: Transient global cerebral ischemia by 4-vessel occlusion (4-VO, Pulsinelli and Brierley method) for 30 minutes. Particulars: 30 minutes global ischemia. In kind it is in vivo, rat. The protocol:
By way of non-limiting example of the present invention, some experimental examples are given herein that show the effectiveness of the compounds modulating P2 purinoceptors, and in particular Basilen Blue, in the reduction of mortality induced by global ischemia. In particular, for such analysis Wistar albino adult male rats weighting 220-250 g have been utilized. Basilen Blue was diluted in saline solution. After a 12 hour fast, transient cerebral ischemia was induced in the rats by the Pulsinelli and Brierley method (Stroke, 10:267-272, 1979). The animals were anesthetized with 2% halotane in a mixture of 30% O2 and 70% N2O. Both vertebral arteries were electrically cauterized and thin claps from Teflon were loosely and reversibly placed around the common carotid arteries. The animals were allowed to recover from anesthesia and kept one per cage, under standard conditions of humidity, temperature and light. The following day, the rats were submitted to a mild anesthesia always with halothane and the claps previously placed around the common carotid arteries were tightened to produce the occlusion of 4 vessels (4-VO) for 30 minutes (in 24 animals). The absence of locomotion activity, the loss of corneal and righting reflexes and the presence of paralytic mydriasis, which took place after 1-2 minutes from the carotid occlusion, were the criteria according to which the animals were considered ischemic and included in the study. The rectal temperature was monitored during the following recovery period and kept constant at a temperature between 36.5 and 37° C. until the rats recovered the locomotion activity and the thermal homeostasis. […]
Wistar albino male rats, having a mean weight of 220-250 g, treated with saline solution (controls) or Basilen Blue were submitted for 30 minutes to global cerebral ischemia, the whole as described previously. The mortality was then monitored for two days following the carotid occlusion in a total of 24 animals (11 controls and 13 treated with Basilen Blue). […]

As for Basilen Blue E-3G (Reactive Blue 2), the “neuronal damage to the hippocampus (neurons lost in CA1-CA2 sectors)” value (2 x 4,5 mg/kg i.p., vs saline controls) is on record as “less severe”. Moreover, under “2 x 4,5 mg/kg i.p., vs saline controls, p>0,05 as printed”, the “mortality index compared to control group” value is given as “significantly lower; also recorded: reduces the mortality”. Further, under “Basilen Blue 4,5 mg/kg i.p. 15 minutes before and 3 hours after carotid occlusion, control group 5 out of 11 died”, the “animals died (mortality) within two days from the carotid occlusion” value is recorded as 3 out of the 13.
